In patent US6982348B2, “Aminoethanol derivatives” (Takeda Pharmaceutical Company Limited, priority 2001, dated 2006):

Row | Compound | melting point [°C]
1 | COc1cccc([C@H](O)[C@@H](Cc2cccc(OC(F)(F)C(F)F)c2)NC(=O)c2cccc3c2C=CCCC3)c1 (racemic) [Example 253, N-{(1RS,2SR)-2-hydroxy-2-(3-methoxyphenyl)-1-[3-(1,1,2,2-tetrafluoroethoxy)benzyl]ethyl}-6,7-dihydro-5H-benzo[a][7]annulene-1-carboxamide] | 155 to 156
2 | CC(C)(C)OC(=O)N[C@H](Cc1cccc(OC(F)(F)C(F)F)c1)[C@@H](O)c1ccc(Oc2ccccc2)cn1 (racemic) [Example 254, tert-butyl (1RS,2RS)-2-hydroxy-2-(5-phenoxypyridin-2-yl)-1-[3-(1,1,2,2-tetrafluoroethoxy)benzyl]ethylcarbamate] | 129 to 130
3 | O=C(N[C@H](Cc1cccc(OC(F)(F)C(F)F)c1)[C@@H](O)c1ccc(Oc2ccccc2)cn1)c1cccc2c1C=CCCC2 (racemic) [Example 255, N-{(1RS,2RS)-2-hydroxy-2-(5-phenoxypyridin-2-yl)-1-[3-(1,1,2,2-tetrafluoroethoxy)benzyl]ethyl}-6,7-dihydro-5H-benzo[a][7]annulene-1-carboxamide] | 147 to 148
4 | O=C(N[C@H](Cc1cccc(OC(F)(F)C(F)F)c1)[C@@H](O)c1ccc(Oc2ccccc2)cn1)c1ccc(F)c2ccccc12 (racemic) [Example 256, 4-fluoro-N-{(1RS,2RS)-2-hydroxy-2-(5-phenoxypyridin-2-yl)-1-[3-(1,1,2,2-tetrafluoroethoxy)benzyl]ethyl}-1-naphthamide] | 146 to 147
5 | CC(C)(C)OC(=O)N[C@H](Cc1cccc(OC(F)(F)C(F)F)c1)[C@@H](O)c1ccc(Oc2ccccn2)cc1 (racemic) [Example 257, tert-butyl (1RS,2SR)-2-hydroxy-2-[4-(pyridin-2-yloxy)phenyl]-1-[3-(1,1,2,2-tetrafluoroethoxy)benzyl]ethylcarbamate] | 130 to 131
6 | O=C(N[C@H](Cc1cccc(OC(F)(F)C(F)F)c1)[C@@H](O)c1ccc(Oc2ccccn2)cc1)c1cccc2c1C=CCCC2 (racemic) [Example 258, N-{(1RS,2SR)-2-hydroxy-2-[4-(pyridin-2-yloxy)phenyl]-1-[3-(1,1,2,2-tetrafluoroethoxy)benzyl]ethyl}-6,7-dihydro-5H-benzo[a][7]annulene-1-carboxamide] | 160 to 161
7 | O=C(N[C@H](Cc1cccc(OC(F)(F)C(F)F)c1)[C@@H](O)c1ccc(Oc2ccccn2)cc1)c1ccc(F)c2ccccc12 (racemic) [Example 259, 4-fluoro-N-{(1RS,2SR)-2-hydroxy-2-[4-(pyridin-2-yloxy)phenyl]-1-[3-(1,1,2,2-tetrafluoroethoxy)benzyl]ethyl}-1-naphthamide] | 176 to 177
8 | CC(C)(C)OC(=O)N[C@H](Cc1cccc(OC(F)(F)C(F)F)c1)[C@@H](O)c1ccc(Oc2cccnc2)cc1 (racemic) [Example 260, tert-butyl (1RS,2SR)-2-hydroxy-2-[4-(pyridin-3-yloxy)phenyl]-1-[3-(1,1,2,2-tetrafluoroethoxy)benzyl]ethylcarbamate] | 123 to 124
9 | O=C(N[C@H](Cc1cccc(OC(F)(F)C(F)F)c1)[C@@H](O)c1ccc(Oc2cccnc2)cc1)c1cccc2c1C=CCCC2 (racemic) [Example 261, N-{(1RS,2SR)-2-hydroxy-2-[4-(pyridin-3-yloxy)phenyl]-1-[3-(1,1,2,2-tetrafluoroethoxy)benzyl]ethyl}-6,7-dihydro-5H-benzo[a][7]annulene-1-carboxamide] | 133 to 134
10 | O=C(N[C@H](Cc1cccc(OC(F)(F)C(F)F)c1)[C@@H](O)c1ccc(Oc2cccnc2)cc1)c1ccc(F)c2ccccc12 (racemic) [Example 262, 4-fluoro-N-{(1RS,2SR)-2-hydroxy-2-[4-(pyridin-3-yloxy)phenyl]-1-[3-(1,1,2,2-tetrafluoroethoxy)benzyl]ethyl}-1-naphthamide] | 183 to 184
11 | O=C(N[C@H](Cc1cccc(OC(F)(F)C(F)F)c1)[C@@H](O)c1cccc(F)c1)c1ccc(F)c2ccccc12 (racemic) [Example 263, 4-fluoro-N-{(1RS,2SR)-2-(3-fluorophenyl)-2-hydroxy-1-[3-(1,1,2,2-tetrafluoroethoxy)benzyl]ethyl}-1-naphthamide] | 175 to 176
12 | O=C(N[C@H](Cc1cccc(OC(F)(F)C(F)F)c1)[C@@H](O)c1cccc(Cl)c1)c1ccc(F)c2ccccc12 (racemic) [Example 264, 4-fluoro-N-{(1RS,2SR)-2-(3-chlorophenyl)-2-hydroxy-1-[3-(1,1,2,2-tetrafluoroethoxy)benzyl]ethyl}-1-naphthamide] | 177 to 178
13 | O=C(N[C@H](Cc1cccc(OC(F)(F)C(F)F)c1)[C@@H](O)c1ccnc(F)c1)c1ccc(F)c2ccccc12 (racemic) [Example 265, 4-fluoro-N-{(1RS,2SR)-2-(2-fluoropyridin-4-yl)-2-hydroxy-1-[3-(1,1,2,2-tetrafluoroethoxy)benzyl]ethyl}-1-naphthamide] | 170 to 171
14 | O=C(N[C@H](Cc1cccc(OC(F)(F)C(F)F)c1)[C@@H](O)c1cccc(F)n1)c1ccc(F)c2ccccc12 (racemic) [Example 266, 4-fluoro-N-{(1RS,2RS)-2-(6-fluoropyridin-2-yl)-2-hydroxy-1-[3-(1,1,2,2-tetrafluoroethoxy)benzyl]ethyl}-1-naphthamide] | 185 to 186
15 | O=C(N[C@H](Cc1cccc(OC(F)(F)C(F)F)c1)[C@@H](O)c1ccc(Oc2ccccc2)cc1)c1ccc(F)c2ccccc12 (racemic) [Example 267, 4-fluoro-N-{(1RS,2SR)-2-hydroxy-2-(4-phenoxyphenyl)-1-[3-(1,1,2,2-tetrafluoroethoxy)benzyl]ethyl}-1-naphthamide] | 155 to 156
16 | O=C(N[C@H](Cc1cccc(SC(F)(F)F)c1)[C@@H](O)c1ccc(F)cc1)c1ccc(F)c2ccccc12 (racemic) [Example 269, 4-fluoro-N-((1RS,2SR)-2-(4-fluorophenyl)-2-hydroxy-1-{3-[(trifluoromethyl)thio]benzyl}ethyl)-1-naphthamide] | 192 to 193
17 | O=C(N[C@H](Cc1ccc2c(c1)OC(F)(F)C(F)(F)O2)[C@@H](O)c1ccc(F)cc1)c1cccc2c1C=CCCC2 (racemic) [Example 270, N-{(1RS,2SR)-2-(4-fluorophenyl)-2-hydroxy-1-[(2,2,3,3-tetrafluoro-2,3-dihydro-1,4-benzodioxin-6-yl)methyl]ethyl}-6,7-dihydro-5H-benzo[a][7]annulene-1-carboxamide] | 184 to 185
18 | CC(C)(C)c1ccc(C[C@@H](NC(=O)c2cccc3c2C=CCCC3)[C@@H](O)c2cccc(Cl)c2)cc1 (racemic) [Example 272, N-[(1RS,2SR)-1-(4-tert-butylbenzyl)-2-(3-chlorophenyl)-2-hydroxyethyl]-6,7-dihydro-5H-benzo[a][7]annulene-1-carboxamide] | 142 to 143
19 | CC(C)(C)c1ccc(C[C@@H](NC(=O)c2ccc(F)c3ccccc23)[C@@H](O)c2cccc(Cl)c2)cc1 (racemic) [Example 273, N-[(1RS,2SR)-1-(4-tert-butylbenzyl)-2-(3-chlorophenyl)-2-hydroxyethyl]-4-fluoro-1-naphthamide] | 144 to 145
20 | CC(C)(C)c1ccc(C[C@@H](NC(=O)c2cccc3c(F)cccc23)[C@@H](O)c2cccc(Cl)c2)cc1 (racemic) [Example 275, N-[(1RS,2SR)-1-(4-tert-butylbenzyl)-2-(3-chlorophenyl)-2-hydroxyethyl]-5-fluoro-1-naphthamide] | 102 to 103
21 | CC(C)(C)Oc1ccc(C[C@@H](NC(=O)c2cccc3c2C=CCCC3)[C@@H](O)c2cccc(Cl)c2)cc1 (racemic) [Example 276, N-[(1RS,2SR)-1-(4-tert-butoxybenzyl)-2-(3-chlorophenyl)-2hydroxyethyl]-6,7-dihydro-5H-benzo[a][7]annulene-1-carboxamide] | 180 to 181
22 | CC(C)(C)Oc1ccc(C[C@@H](NC(=O)c2ccc(F)c3ccccc23)[C@@H](O)c2cccc(Cl)c2)cc1 (racemic) [Example 277, N-[(1RS,2SR)-1-(4-tert-butoxybenzyl)-2-(3-chlorophenyl)-2-hydroxyethyl]-4-fluoro-1-naphthamide] | 161 to 162
23 | CC(C)(C)Oc1ccc(C[C@@H](NC(=O)c2cccc3c(Cl)cccc23)[C@@H](O)c2cccc(Cl)c2)cc1 (racemic) [Example 278, N-[(1RS,2SR)-1-(4-tert-butoxybenzyl)-2-(3-chlorophenyl)-2-hydroxyethyl]-5-chloro-1-naphthamide] | 132 to 133
24 | CC(C)(C)OC(=O)N[C@H](Cc1cccc(S(=O)(=O)C(F)(F)F)c1)[C@@H](O)c1ccc(F)cc1 (racemic) [Example 279, tert-butyl (1RS,2SR)-2-(4-fluorophenyl)-2-hydroxy-1-{3-[(trifluoromethyl)sulfonyl]benzyl}ethylcarbamate] | 152 to 153
25 | O=C(N[C@H](Cc1cccc(S(=O)(=O)C(F)(F)F)c1)[C@@H](O)c1ccc(F)cc1)c1cccc2c1C=CCCC2 (racemic) [Example 280, N-((1RS,2SR)-2-(4-fluorophenyl)-2-hydroxy-1-{3-[(trifluoromethyl)sulfonyl]benzyl}ethyl)-6,7-dihydro-5H-benzo[a][7]annulene-1-carboxamide] | 156 to 157
26 | O=C(N[C@H](Cc1cccc(S(=O)(=O)C(F)(F)F)c1)[C@@H](O)c1ccc(F)cc1)c1ccc(F)c2ccccc12 (racemic) [Example 281, 4-fluoro-N-((1RS,2SR)-2-(4-fluorophenyl)-2-hydroxy-1-{3-[(trifluoromethyl)sulfonyl]benzyl}ethyl)-1-naphthamide] | 157 to 158
27 | CC(C)Oc1cccc(C[C@@H](NC(=O)c2cccc3c2C=CCCC3)[C@@H](O)c2ccc(F)cc2)c1 (racemic) [Example 282, N-[(1RS,2SR)-2-(4-fluorophenyl)-2-hydroxy-1-(3-isopropoxybenzyl)ethyl]-6,7-dihydro-5H-benzo[a]cycloheptene-1-carboxamide] | 161 to 162
28 | CC(C)Oc1cccc(C[C@@H](NC(=O)c2ccc(F)c3ccccc23)[C@@H](O)c2ccc(F)cc2)c1 (racemic) [Example 283, 4-fluoro-N-[(1RS,2SR)-2-(4-fluorophenyl)-2-hydroxy-1-(3-isopropoxybenzyl)ethyl]-1-naphthamide] | 190 to 191
